In assay [1] the test system is K1 strain, a drug resistant strain of Plasmodium falciparum. The experiment in a line: In vitro antimalarial assay (p-LDH, Malstat), K1 strain. The format is cell-based. Particulars: read-out: Antimalarial activity (IC50 value), Strain K1. The method, boiled down: (§1)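 IC50 derived from concentration-response of parasite lactate dehydrogenase signal (Malstat reagent, NBT/PES formazan at 655 nm) after freeze-thaw lysis. Infected erythrocytes (hematocrit 2%, parasitaemia 0.5 or 1%) exposed 72 h to 12.5–0.0001 μM final compound under 3% O2-4% CO2-93% N2, FCR3 and K1 alike.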

In assay [2] the test system is FCR3 strain, a drug sensitive strain of Plasmodium falciparum. Briefly: In vitro antimalarial assay (p-LDH, Malstat), FCR3 strain. The format is cell-based. The conditions noted are these: read-out: Antimalarial activity (IC50 value), Strain FCR3. The method, boiled down: as §1
Where [3] appears, read: P. falciparum K1 (drug resistant), 72 h culture, p-LDH readout.
The mark [4] stands for this setting: P. falciparum FCR3 (drug sensitive), 72 h culture, p-LDH readout.

Structures can show the parent of a compound that is named as a salt. Where two headings read alike, the source gives them in different places.

For the molecule `CC(C)c1cccc(Nc2nc(Nc3ccn4ccnc4c3)cc(N3CCOCC3)n2)n1` [Example 123, N4-(imidazo[1,2-a]pyridin-7-yl)-N2-(6-isopropylpyridin-2-yl)-6-morpholinopyrimidine-2,4-diamine formate], the IC50 in assay [1] (K1, 72 h) was 100 to 1000 nM; in assay [2] (FCR3, 72 h) it was less than 100 nM.
As for `CC(C)(C)c1cccc(Nc2nc(Nc3ccn4ccnc4c3)cc(N3CCOCC3)n2)n1` [Example 124, N2-(6-(tert-butyl)pyridin-2-yl)-N4-(imidazo[1,2-a]pyridin-7-yl)-6-morpholinopyrimidine-2,4-diamine], the IC50 in assay [1] (setting [3]) and in assay [2] (setting [4]) was 100 to 1000 nM in each case.
`CCc1ccnc(Nc2nc(Nc3ccn4ccnc4c3)cc(N3CC[C@@H](N(C)C)C3)n2)c1` [Example 125, (R)-6-(3-(dimethylamino)pyrrolidin-1-yl)-N2-(4-ethylpyridin-2-yl)-N4-(imidazo[1,2-a]pyridin-7-yl)pyrimidine-2,4-diamine]: the IC50 in assay [1] (setting [3]) and in assay [2] (setting [4]) was less than 100 nM each time.
As to `CCc1ccnc(Nc2nc(Nc3ccn4ccnc4c3)cc(N3CC[C@H](N(C)C)C3)n2)c1` [Example 126, (S)-6-(3-(dimethylamino)pyrrolidin-1-yl)-N2-(4-ethylpyridin-2-yl)-N4-(imidazo[1,2-a]pyridin-7-yl)pyrimidine-2,4-diamine], the IC50 in assay [1] (setting [3]) and in assay [2] (setting [4]) was less than 100 nM throughout.
Turning to `CCc1ccnc(Nc2nc(Nc3ccn4ccnc4c3)cc(N3CCC(N4CCCC4)CC3)n2)c1` [Example 127, N2-(4-ethylpyridin-2-yl)-N4-(imidazo[1,2-a]pyridin-7-yl)-6-(4-(pyrrolidin-1-yl)piperidin-1-yl)pyrimidine-2,4-diamine], the IC50 in assay [1] (setting [3]) and in assay [2] (setting [4]) was less than 100 nM in each case.
Take `COc1ccnc(Nc2nc(Nc3ccn4ccnc4c3)cc(N3CCCC3)n2)c1` [Example 128, N4-(imidazo[1,2-a]pyridin-7-yl)-N2-(4-methoxypyridin-2-yl)-6-(pyrrolidin-1-yl)pyrimidine-2,4-diamine]: the IC50 in assay [1] (setting [3]) and in assay [2] (setting [4]) was less than 100 nM in each case.
`CCc1ccnc(Nc2nc(Nc3ccn4ccnc4c3)cc(N3CCC(N(C)C)CC3)n2)c1` [Example 129, 6-(4-(dimethylamino)piperidin-1-yl)-N2-(4-ethylpyridin-2-yl)-N4-(imidazo[1,2-a]pyridin-7-yl)pyrimidine-2,4-diamine]: the IC50 in assay [1] (setting [3]) and in assay [2] (setting [4]) was less than 100 nM throughout.
Turning to `Cc1cc(C)nc(Nc2nc(Nc3ccn4ccnc4c3)cc(N3CCC(O)CC3)n2)c1` [Example 130, 1-(2-((4,6-dimethylpyridin-2-yl)amino)-6-(imidazo[1,2-a]pyridin-7-ylamino)pyrimidin-4-yl)piperidin-4-ol], the IC50 in assay [1] (setting [3]) and in assay [2] (setting [4]) was less than 100 nM each time.
`COC1CCN(c2cc(Nc3ccn4ccnc4c3)nc(Nc3cc(C)cc(C)n3)n2)CC1` [Example 131, N2-(4,6-dimethylpyridin-2-yl)-N4-(imidazo[1,2-a]pyridin-7-yl)-6-(4-methoxypiperidin-1-yl)pyrimidine-2,4-diamine]: the IC50 in assay [1] (setting [3]) and in assay [2] (setting [4]) was less than 100 nM each time.
`Cc1cc(C)nc(Nc2nc(Nc3ccn4ccnc4c3)cc(N3CCC(N4CCOCC4)CC3)n2)c1` [Example 132, N2-(4,6-dimethylpyridin-2-yl)-N4-(imidazo[1,2-a]pyridin-7-yl)-6-(4-morpholinopiperidin-1-yl)pyrimidine-2,4-diamine]: the IC50 in assay [1] (setting [3]) and in assay [2] (setting [4]) was less than 100 nM in each case.
With `Cc1cc(C)nc(Nc2nc(Nc3ccn4ccnc4c3)cc(N3CCC(N4CCCCC4)CC3)n2)c1` [Example 133, 6-([1,4′-bipiperidin]-1′-yl)-N2-(4,6-dimethylpyridin-2-yl)-N4-(imidazo[1,2-a]pyridin-7-yl)pyrimidine-2,4-diamine], the IC50 in assay [1] (setting [3]) and in assay [2] (setting [4]) was less than 100 nM in each case.
In the case of `Cc1cc(C)nc(Nc2nc(Nc3ccn4ccnc4c3)cc(N3CCC(N(C)C)CC3)n2)c1` [Example 134, 6-(4-(dimethylamino)piperidin-1-yl)-N2-(4,6-dimethylpyridin-2-yl)-N4-(imidazo[1,2-a]pyridin-7-yl)pyrimidine-2,4-diamine], the IC50 in assay [1] (setting [3]) and in assay [2] (setting [4]) was less than 100 nM throughout.
On to `Cc1cc(C)nc(Nc2nc(Nc3ccn4ccnc4c3)cc(N3CCCC3)n2)c1` [Example 135, N2-(4,6-dimethylpyridin-2-yl)-N4-(imidazo[1,2-a]pyridin-7-yl)-6-(pyrrolidin-1-yl)pyrimidine-2,4-diamine], for which the half-maximal inhibitory concentration (IC50) in assay [1] (setting [3]) and in assay [2] (setting [4]) was less than 100 nM throughout.
In the case of `Cc1cc(C)nc(Nc2nc(Nc3ccn4ccnc4c3)cc(N3CCC(O)C3)n2)c1` (centres unmarked) [Example 136, 1-(2-((4,6-dimethylpyridin-2-yl)amino)-6-(imidazo[1,2-a]pyridin-7-ylamino)pyrimidin-4-yl)pyrrolidin-3-ol], the IC50 in assay [1] (setting [3]) and in assay [2] (setting [4]) was less than 100 nM each time.
Regarding `Cc1cc(C)nc(Nc2nc(Nc3ccn4ccnc4c3)cc(N3CCC(N(C)C)C3)n2)c1` (centres unmarked) [Example 137, 6-(3-(dimethylamino)pyrrolidin-1-yl)-N2-(4,6-dimethylpyridin-2-yl)-N4-(imidazo[1,2-a]pyridin-7-yl)pyrimidine-2,4-diamine], the half-inhibitory concentration (IC50) in assay [1] (setting [3]) and in assay [2] (setting [4]) was less than 100 nM throughout.
Take `Cc1cc(C)nc(Nc2nc(Nc3ccn4ccnc4c3)cc(N3CCC(F)(F)C3)n2)c1` [Example 138, 6-(3,3-difluoropyrrolidin-1-yl)-N2-(4,6-dimethylpyridin-2-yl)-N4-(imidazo[1,2-a]pyridin-7-yl)pyrimidine-2,4-diamine]: the IC50 in assay [1] (setting [3]) was 100 to 1000 nM; in assay [2] (setting [4]), less than 100 nM.
On the same counts, the results for `Cc1cc(C)nc(Nc2nc(Nc3ccn4ccnc4c3)cc(N3CC=CC3)n2)c1` [Example 139, 6-(2,5-dihydro-1H-pyrrol-1-yl)-N2-(4,6-dimethylpyridin-2-yl)-N4-(imidazo[1,2-a]pyridin-7-yl)pyrimidine-2,4-diamine] are less than 100 nM and less than 100 nM.
In the case of `COC1CCN(c2cc(Nc3ccn4ccnc4c3)nc(Nc3cc(C)cc(C)n3)n2)C1` (centres unmarked) [Example 140, N2-(4,6-dimethylpyridin-2-yl)-N4-(imidazo[1,2-a]pyridin-7-yl)-6-(3-methoxypyrrolidin-1-yl)pyrimidine-2,4-diamine], the IC50 in assay [1] (setting [3]) and in assay [2] (setting [4]) was less than 100 nM each time.
Regarding `Cc1cc(C2CC2)cc(Nc2nc(Nc3ccn4ccnc4c3)cc(N3CCCCC3)n2)n1` [Example 141, N2-(4-cyclopropyl-6-methylpyridin-2-yl)-N4-(imidazo[1,2-a]pyridin-7-yl)-6-(piperidin-1-yl)pyrimidine-2,4-diamine], the figures for the IC50 in assay [1] (setting [3]) and in assay [2] (setting [4]) were 100 to 1000 nM and less than 100 nM, respectively.
On the same counts, the results for `COc1cccc(Nc2nc(Nc3ccn4ccnc4c3)cc(N3CCCC3)n2)n1` [Example 143, N4-(imidazo[1,2-a]pyridin-7-yl)-N2-(6-methoxypyridin-2-yl)-6-(pyrrolidin-1-yl)pyrimidine-2,4-diamine] are 100 to 1000 nM and 1000 to 10000 nM.
On the same counts, the results for `COc1cccc(Nc2nc(Nc3ccn4ccnc4c3)cc(N3CCCCC3)n2)n1` [Example 144, N4-(imidazo[1,2-a]pyridin-7-yl)-N2-(6-methoxypyridin-2-yl)-6-(piperidin-1-yl)pyrimidine-2,4-diamine] are 100 to 1000 nM and 100 to 1000 nM.
Consider `CCOc1ccnc(Nc2nc(Nc3ccn4ccnc4c3)cc(N3CCCC3)n2)c1` [Example 145, N2-(4-ethoxypyridin-2-yl)-N4-(imidazo[1,2-a]pyridin-7-yl)-6-(pyrrolidin-1-yl)pyrimidine-2,4-diamine], for which the 50% inhibitory concentration (IC50) in assay [1] (setting [3]) was 100 to 1000 nM; in assay [2] (setting [4]), less than 100 nM.
On the same counts, the results for `Cc1cc(C)nc(Nc2nc(Nc3ccn4ccnc4c3)cc(N3CCC(C)C3)n2)c1` (centres unmarked) [Example 146, N2-(4,6-dimethylpyridin-2-yl)-N4-(imidazo[1,2-a]pyridin-7-yl)-6-(3-methylpyrrolidin-1-yl)pyrimidine-2,4-diamine] are less than 100 nM and less than 100 nM.
On the same counts, the results for `Cc1cc(C)nc(Nc2nc(Nc3ccn4ccnc4c3)cc(N3CCC(N4CCCC4)C3)n2)c1` (centres unmarked) [Example 148, 6-([1,3′-bipyrrolidin]-1′-yl)-N2-(4,6-dimethylpyridin-2-yl)-N4-(imidazo[1,2-a]pyridin-7-yl)pyrimidine-2,4-diamine] are less than 100 nM and less than 100 nM.
The matching figures for `Cc1cc(C)nc(Nc2nc(Nc3ccn4ccnc4c3)cc(N3CCC(N4CCOCC4)C3)n2)c1` (centres unmarked) [Example 149, N2-(4,6-dimethylpyridin-2-yl)-N4-(imidazo[1,2-a]pyridin-7-yl)-6-(3-morpholinopyrrolidin-1-yl)pyrimidine-2,4-diamine]: less than 100 nM and less than 100 nM.
With `CCOc1cccc(Nc2nc(Nc3ccn4ccnc4c3)cc(N3CCCC3)n2)n1` [Example 150, N2-(6-ethoxypyridin-2-yl)-N4-(imidazo[1,2-a]pyridin-7-yl)-6-(pyrrolidin-1-yl)pyrimidine-2,4-diamine], the IC50 in assay [1] (setting [3]) was 100 to 1000 nM; in assay [2] (setting [4]), less than 100 nM.
The matching figures for `CCCOc1cccc(Nc2nc(Nc3ccn4ccnc4c3)cc(N3CCCC3)n2)n1` [Example 151, N4-(imidazo[1,2-a]pyridin-7-yl)-N2-(6-propoxypyridin-2-yl)-6-(pyrrolidin-1-yl)pyrimidine-2,4-diamine]: 100 to 1000 nM and 100 to 1000 nM.
On the same counts, the results for `COCCOc1cccc(Nc2nc(Nc3ccn4ccnc4c3)cc(N3CCCC3)n2)n1` [Example 152, N4-(imidazo[1,2-a]pyridin-7-yl)-N2-[6-(2-methoxyethoxy)pyridin-2-yl]-6-(pyrrolidin-1-yl)pyrimidine-2,4-diamine] are less than 100 nM and less than 100 nM.

Broadly, the IC50 is the midpoint of a concentration-inhibition curve.

(Values after patent US10538521B2, “Pyrimidine derivative having antimalarial activity” (CARNA BIOSCIENCES, INC., priority 2016, dated 2020).)
